Experimental data: PubChem BioAssay (NCI)
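All cell lines were grown in 96-well plates and treated with compound for 48 hours. GI50 marks 50% less growth. TGI denotes the concentration required for complete inhibition of growth.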

Test system: HCT-116 colon
Test: growth of human tumour cells (NCI), 48 h

| Structure (SMILES) | TGI [µM] |
| --- | --- |
| Cc1cccc2c1Oc1cc(Cl)ccc1C2NC(=O)CCN1CCOCC1 (stereo unspecified) | > 100 |

Test system: SF-539 CNS
Test: growth of human tumour cells (NCI), 48 h

| Structure (SMILES) | TGI [µM] |
| --- | --- |
| N#Cc1c(-c2ccccc2)[nH]c2ccccc2c1=O | > 100 |
| O/N=C\c1c(O)ccc2ccccc12 | > 100 |
| CCOC(=O)c1csc(NC(=O)C(C)N2CCCCC2)n1 (stereo unspecified) | > 100 |
| CC1=NC(=Cc2ccc(O)cc2)C(=O)N1n1c(-c2ccccc2)nc2ccccc2c1=O | > 100 |
| COc1ccc2c(c1)CN1C(=N2)CSC1c1cc([N+](=O)[O-])ccc1Cl (stereo unspecified) | 98.2 |
| N#Cc1sc2nc(/C=C3/C=CC=CC3=O)c(O)n2c1N | 60 |
| Cc1cccc2c1Oc1cc(Cl)ccc1C2NC(=O)CCN1CCOCC1 (stereo unspecified) | > 100 |

Test system: HT29 colon
Test: growth of human tumour cells (NCI), 48 h

| Structure (SMILES) | TGI [µM] |
| --- | --- |
| N#Cc1c(-c2ccccc2)[nH]c2ccccc2c1=O | > 100 |
| O/N=C\c1c(O)ccc2ccccc12 | > 100 |
| CCOC(=O)c1csc(NC(=O)C(C)N2CCCCC2)n1 (stereo unspecified) | > 100 |
| CC1=NC(=Cc2ccc(O)cc2)C(=O)N1n1c(-c2ccccc2)nc2ccccc2c1=O | > 100 |
| COc1ccc2c(c1)CN1C(=N2)CSC1c1cc([N+](=O)[O-])ccc1Cl (stereo unspecified) | 75.8 |
| N#Cc1sc2nc(/C=C3/C=CC=CC3=O)c(O)n2c1N | > 100 |
| NS(=O)(=O)c1ccc(-n2c(-c3cccs3)nc3ccc(I)cc3c2=O)cc1 | 94.1 |
| Cc1cccc2c1Oc1cc(Cl)ccc1C2NC(=O)CCN1CCOCC1 (stereo unspecified) | > 100 |

Test system: NCI/ADR-RES ovarian
Test: growth of human tumour cells (NCI), 48 h

| Structure (SMILES) | TGI [µM] |
| --- | --- |
| N#Cc1c(-c2ccccc2)[nH]c2ccccc2c1=O | > 100 |
| O/N=C\c1c(O)ccc2ccccc12 | > 100 |
| CCOC(=O)c1csc(NC(=O)C(C)N2CCCCC2)n1 (stereo unspecified) | > 100 |
| COc1ccc2c(c1)CN1C(=N2)CSC1c1cc([N+](=O)[O-])ccc1Cl (stereo unspecified) | > 100 |
| N#Cc1sc2nc(/C=C3/C=CC=CC3=O)c(O)n2c1N | > 100 |
| NS(=O)(=O)c1ccc(-n2c(-c3cccs3)nc3ccc(I)cc3c2=O)cc1 | 86.3 |
| Cc1cccc2c1Oc1cc(Cl)ccc1C2NC(=O)CCN1CCOCC1 (stereo unspecified) | > 100 |

Test system: OVCAR-8 ovarian
Test: growth of human tumour cells (NCI), 48 h

| Structure (SMILES) | TGI [µM] |
| --- | --- |
| N#Cc1c(-c2ccccc2)[nH]c2ccccc2c1=O | > 100 |
| O/N=C\c1c(O)ccc2ccccc12 | > 100 |
| CCOC(=O)c1csc(NC(=O)C(C)N2CCCCC2)n1 (stereo unspecified) | > 100 |
| CC1=NC(=Cc2ccc(O)cc2)C(=O)N1n1c(-c2ccccc2)nc2ccccc2c1=O | > 100 |
| COc1ccc2c(c1)CN1C(=N2)CSC1c1cc([N+](=O)[O-])ccc1Cl (stereo unspecified) | > 100 |
| N#Cc1sc2nc(/C=C3/C=CC=CC3=O)c(O)n2c1N | > 100 |
| NS(=O)(=O)c1ccc(-n2c(-c3cccs3)nc3ccc(I)cc3c2=O)cc1 | > 100 |
| Cc1cccc2c1Oc1cc(Cl)ccc1C2NC(=O)CCN1CCOCC1 (stereo unspecified) | > 100 |

Test system: A549 NSCLC
Test: growth of human tumour cells (NCI), 48 h

| Structure (SMILES) | TGI [µM] |
| --- | --- |
| N#Cc1c(-c2ccccc2)[nH]c2ccccc2c1=O | > 100 |
| O/N=C\c1c(O)ccc2ccccc12 | > 100 |
| CCOC(=O)c1csc(NC(=O)C(C)N2CCCCC2)n1 (stereo unspecified) | > 100 |
| CC1=NC(=Cc2ccc(O)cc2)C(=O)N1n1c(-c2ccccc2)nc2ccccc2c1=O | > 100 |
| COc1ccc2c(c1)CN1C(=N2)CSC1c1cc([N+](=O)[O-])ccc1Cl (stereo unspecified) | > 100 |
| N#Cc1sc2nc(/C=C3/C=CC=CC3=O)c(O)n2c1N | > 100 |
| NS(=O)(=O)c1ccc(-n2c(-c3cccs3)nc3ccc(I)cc3c2=O)cc1 | 41.5 |
| Cc1cccc2c1Oc1cc(Cl)ccc1C2NC(=O)CCN1CCOCC1 (stereo unspecified) | > 100 |

Test system: DU-145 prostate
Test: growth of human tumour cells (NCI), 48 h

| Structure (SMILES) | TGI [µM] |
| --- | --- |
| N#Cc1c(-c2ccccc2)[nH]c2ccccc2c1=O | > 100 |
| CCOC(=O)c1csc(NC(=O)C(C)N2CCCCC2)n1 (stereo unspecified) | > 100 |
| CC1=NC(=Cc2ccc(O)cc2)C(=O)N1n1c(-c2ccccc2)nc2ccccc2c1=O | > 100 |
| N#Cc1sc2nc(/C=C3/C=CC=CC3=O)c(O)n2c1N | > 100 |
| NS(=O)(=O)c1ccc(-n2c(-c3cccs3)nc3ccc(I)cc3c2=O)cc1 | 35.9 |
| Cc1cccc2c1Oc1cc(Cl)ccc1C2NC(=O)CCN1CCOCC1 (stereo unspecified) | > 100 |

Test system: HCT-15 colon
Test: growth of human tumour cells (NCI), 48 h

| Structure (SMILES) | TGI [µM] |
| --- | --- |
| N#Cc1c(-c2ccccc2)[nH]c2ccccc2c1=O | > 100 |
| O/N=C\c1c(O)ccc2ccccc12 | > 100 |
| CCOC(=O)c1csc(NC(=O)C(C)N2CCCCC2)n1 (stereo unspecified) | > 100 |
| CC1=NC(=Cc2ccc(O)cc2)C(=O)N1n1c(-c2ccccc2)nc2ccccc2c1=O | > 100 |
| COc1ccc2c(c1)CN1C(=N2)CSC1c1cc([N+](=O)[O-])ccc1Cl (stereo unspecified) | > 100 |
| N#Cc1sc2nc(/C=C3/C=CC=CC3=O)c(O)n2c1N | > 100 |
| NS(=O)(=O)c1ccc(-n2c(-c3cccs3)nc3ccc(I)cc3c2=O)cc1 | 50.9 |
| Cc1cccc2c1Oc1cc(Cl)ccc1C2NC(=O)CCN1CCOCC1 (stereo unspecified) | > 100 |

Test system: UACC-62 melanoma
Test: growth of human tumour cells (NCI), 48 h

| Structure (SMILES) | TGI [µM] |
| --- | --- |
| N#Cc1c(-c2ccccc2)[nH]c2ccccc2c1=O | > 100 |
| O/N=C\c1c(O)ccc2ccccc12 | > 100 |
| CCOC(=O)c1csc(NC(=O)C(C)N2CCCCC2)n1 (stereo unspecified) | > 100 |
| CC1=NC(=Cc2ccc(O)cc2)C(=O)N1n1c(-c2ccccc2)nc2ccccc2c1=O | > 100 |
| COc1ccc2c(c1)CN1C(=N2)CSC1c1cc([N+](=O)[O-])ccc1Cl (stereo unspecified) | 57.5 |
| NS(=O)(=O)c1ccc(-n2c(-c3cccs3)nc3ccc(I)cc3c2=O)cc1 | 46.2 |
| Cc1cccc2c1Oc1cc(Cl)ccc1C2NC(=O)CCN1CCOCC1 (stereo unspecified) | > 100 |

Test system: SR leukemia
Test: growth of human tumour cells (NCI), 48 h

| Structure (SMILES) | TGI [µM] |
| --- | --- |
| N#Cc1c(-c2ccccc2)[nH]c2ccccc2c1=O | > 100 |
| O/N=C\c1c(O)ccc2ccccc12 | 82.1 |
| CC1=NC(=Cc2ccc(O)cc2)C(=O)N1n1c(-c2ccccc2)nc2ccccc2c1=O | > 100 |
| COc1ccc2c(c1)CN1C(=N2)CSC1c1cc([N+](=O)[O-])ccc1Cl (stereo unspecified) | > 100 |
| N#Cc1sc2nc(/C=C3/C=CC=CC3=O)c(O)n2c1N | 60.3 |
| NS(=O)(=O)c1ccc(-n2c(-c3cccs3)nc3ccc(I)cc3c2=O)cc1 | > 100 |
| Cc1cccc2c1Oc1cc(Cl)ccc1C2NC(=O)CCN1CCOCC1 (stereo unspecified) | > 100 |

Test system: SF-295 CNS
Test: growth of human tumour cells (NCI), 48 h

| Structure (SMILES) | TGI [µM] |
| --- | --- |
| N#Cc1c(-c2ccccc2)[nH]c2ccccc2c1=O | 66.7 |
| O/N=C\c1c(O)ccc2ccccc12 | > 100 |
| CCOC(=O)c1csc(NC(=O)C(C)N2CCCCC2)n1 (stereo unspecified) | > 100 |
| CC1=NC(=Cc2ccc(O)cc2)C(=O)N1n1c(-c2ccccc2)nc2ccccc2c1=O | > 100 |
| COc1ccc2c(c1)CN1C(=N2)CSC1c1cc([N+](=O)[O-])ccc1Cl (stereo unspecified) | > 100 |
| N#Cc1sc2nc(/C=C3/C=CC=CC3=O)c(O)n2c1N | > 100 |
| NS(=O)(=O)c1ccc(-n2c(-c3cccs3)nc3ccc(I)cc3c2=O)cc1 | 75.8 |
| Cc1cccc2c1Oc1cc(Cl)ccc1C2NC(=O)CCN1CCOCC1 (stereo unspecified) | > 100 |

Test system: SF-268 CNS
Test: growth of human tumour cells (NCI), 48 h

| Structure (SMILES) | TGI [µM] |
| --- | --- |
| N#Cc1c(-c2ccccc2)[nH]c2ccccc2c1=O | > 100 |
| O/N=C\c1c(O)ccc2ccccc12 | > 100 |
| CC1=NC(=Cc2ccc(O)cc2)C(=O)N1n1c(-c2ccccc2)nc2ccccc2c1=O | > 100 |
| COc1ccc2c(c1)CN1C(=N2)CSC1c1cc([N+](=O)[O-])ccc1Cl (stereo unspecified) | > 100 |
| N#Cc1sc2nc(/C=C3/C=CC=CC3=O)c(O)n2c1N | > 100 |
| NS(=O)(=O)c1ccc(-n2c(-c3cccs3)nc3ccc(I)cc3c2=O)cc1 | 86.8 |
| Cc1cccc2c1Oc1cc(Cl)ccc1C2NC(=O)CCN1CCOCC1 (stereo unspecified) | > 100 |

Test system: CCRF-CEM leukemia
Test: growth of human tumour cells (NCI), 48 h

| Structure (SMILES) | TGI [µM] | GI50 [µM] |
| --- | --- | --- |
| N#Cc1c(-c2ccccc2)[nH]c2ccccc2c1=O | > 100 | – |
| O/N=C\c1c(O)ccc2ccccc12 | > 100 | – |
| CCOC(=O)c1csc(NC(=O)C(C)N2CCCCC2)n1 (stereo unspecified) | > 100 | – |
| CC1=NC(=Cc2ccc(O)cc2)C(=O)N1n1c(-c2ccccc2)nc2ccccc2c1=O | > 100 | – |
| N#Cc1sc2nc(/C=C3/C=CC=CC3=O)c(O)n2c1N | 74.9 | – |
| NS(=O)(=O)c1ccc(-n2c(-c3cccs3)nc3ccc(I)cc3c2=O)cc1 | > 100 | 41.2 |
| Cc1cccc2c1Oc1cc(Cl)ccc1C2NC(=O)CCN1CCOCC1 (stereo unspecified) | > 100 | – |

Test system: UACC-257 melanoma
Test: growth of human tumour cells (NCI), 48 h

| Structure (SMILES) | TGI [µM] |
| --- | --- |
| N#Cc1c(-c2ccccc2)[nH]c2ccccc2c1=O | > 100 |
| O/N=C\c1c(O)ccc2ccccc12 | > 100 |
| CCOC(=O)c1csc(NC(=O)C(C)N2CCCCC2)n1 (stereo unspecified) | > 100 |
| CC1=NC(=Cc2ccc(O)cc2)C(=O)N1n1c(-c2ccccc2)nc2ccccc2c1=O | > 100 |
| COc1ccc2c(c1)CN1C(=N2)CSC1c1cc([N+](=O)[O-])ccc1Cl (stereo unspecified) | > 100 |
| N#Cc1sc2nc(/C=C3/C=CC=CC3=O)c(O)n2c1N | > 100 |
| NS(=O)(=O)c1ccc(-n2c(-c3cccs3)nc3ccc(I)cc3c2=O)cc1 | 19.3 |
| Cc1cccc2c1Oc1cc(Cl)ccc1C2NC(=O)CCN1CCOCC1 (stereo unspecified) | > 100 |

Test system: TK-10 renal
Test: growth of human tumour cells (NCI), 48 h

| Structure (SMILES) | TGI [µM] |
| --- | --- |
| N#Cc1c(-c2ccccc2)[nH]c2ccccc2c1=O | 97.8 |
| O/N=C\c1c(O)ccc2ccccc12 | > 100 |
| CCOC(=O)c1csc(NC(=O)C(C)N2CCCCC2)n1 (stereo unspecified) | > 100 |
| CC1=NC(=Cc2ccc(O)cc2)C(=O)N1n1c(-c2ccccc2)nc2ccccc2c1=O | > 100 |
| COc1ccc2c(c1)CN1C(=N2)CSC1c1cc([N+](=O)[O-])ccc1Cl (stereo unspecified) | > 100 |
| N#Cc1sc2nc(/C=C3/C=CC=CC3=O)c(O)n2c1N | > 100 |
| NS(=O)(=O)c1ccc(-n2c(-c3cccs3)nc3ccc(I)cc3c2=O)cc1 | 50.8 |
| Cc1cccc2c1Oc1cc(Cl)ccc1C2NC(=O)CCN1CCOCC1 (stereo unspecified) | > 100 |
